In PubChem BioAssay (NCI):
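Growth conditions: 96-well plates. Treatment: test compound, 48 hours, 5 concentrations. Analysis: linear interpolation between bracketing concentrations; unreached endpoints set to highest concentration. The concentration for 50% growth inhibition is given as GI50. TGI marks complete inhibition of growth.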

Experiments:
Assay in all cases: DTP human tumour cell line panel, 48 h; in the data active means GI50 below about 0.43 µM; inactive means the rest
SW-620 colon = test system: SW-620 colon
DU-145 prostate = test system: DU-145 prostate
BT-549 breast = test system: BT-549 breast
PC-3 prostate = test system: PC-3 prostate
NCI-H460 lung = test system: NCI-H460 lung
SN12C renal = test system: SN12C renal
MDA-MB-231 breast = test system: MDA-MB-231 breast
OVCAR-4 ovarian = test system: OVCAR-4 ovarian
COLO 205 colon = test system: COLO 205 colon
U251 CNS = test system: U251 CNS
SK-MEL-5 melanoma = test system: SK-MEL-5 melanoma
NCI-H23 lung = test system: NCI-H23 lung
UO-31 renal = test system: UO-31 renal
SNB-75 CNS = test system: SNB-75 CNS
MOLT-4 leukemia = test system: MOLT-4 leukemia
SK-MEL-2 melanoma = test system: SK-MEL-2 melanoma
HCC-2998 colon = test system: HCC-2998 colon
CAKI-1 renal = test system: CAKI-1 renal
786-0 renal = test system: 786-0 renal
KM12 colon = test system: KM12 colon
UACC-62 melanoma = test system: UACC-62 melanoma
OVCAR-8 ovarian = test system: OVCAR-8 ovarian
MCF7 breast = test system: MCF7 breast
HOP-62 NSCLC = test system: HOP-62 NSCLC
SF-268 CNS = test system: SF-268 CNS
MALME-3M melanoma = test system: MALME-3M melanoma
HS 578T breast = test system: HS 578T breast
A549 NSCLC = test system: A549 NSCLC
M14 melanoma = test system: M14 melanoma
MDA-MB-435 = test system: MDA-MB-435
SNB-19 CNS = test system: SNB-19 CNS
HCT-116 colon = test system: HCT-116 colon
NCI/ADR-RES ovarian = test system: NCI/ADR-RES ovarian
ACHN renal = test system: ACHN renal
IGROV1 ovarian = test system: IGROV1 ovarian
EKVX NSCLC = test system: EKVX NSCLC
SR leukemia = test system: SR leukemia
CCRF-CEM leukemia = test system: CCRF-CEM leukemia
T-47D breast = test system: T-47D breast
SF-539 CNS = test system: SF-539 CNS
OVCAR-3 ovarian = test system: OVCAR-3 ovarian
UACC-257 melanoma = test system: UACC-257 melanoma
SF-295 CNS = test system: SF-295 CNS
SK-MEL-28 melanoma = test system: SK-MEL-28 melanoma
NCI-H226 lung = test system: NCI-H226 lung
NCI-H522 lung = test system: NCI-H522 lung
HCT-15 colon = test system: HCT-15 colon
RPMI-8226 leukemia = test system: RPMI-8226 leukemia
HT29 colon = test system: HT29 colon
SK-OV-3 ovarian = test system: SK-OV-3 ovarian
HL-60(TB) leukemia = test system: HL-60(TB) leukemia
RXF 393 renal = test system: RXF 393 renal
TK-10 renal = test system: TK-10 renal
OVCAR-5 ovarian = test system: OVCAR-5 ovarian
LOX IMVI melanoma = test system: LOX IMVI melanoma

C=C(NC(=O)C(=C)NC(=O)c1csc(C2=NC3c4csc(n4)C4NC(=O)c5csc(n5)C(C(C)(O)C(C)O)NC(=O)C5CSC(=N5)C(=CC)NC(=O)C(C(C)O)NC(=O)c5csc(n5)C3(CC2)NC(=O)C(C)NC(=O)C(=C)NC(=O)C(C)NC(=O)C(C(C)CC)NC2C=Cc3c(C(C)O)cc(nc3C2O)C(=O)OC4C)n1)C(N)=O (centres undefined)
80.7 µM: TGI (T-47D breast)
5.55 µM: TGI (MOLT-4 leukemia)
27.5 µM: TGI (KM12 colon)
19.7 µM: TGI (786-0 renal) | TGI (RPMI-8226 leukemia)
19.8 µM: TGI (SK-MEL-5 melanoma)
24.5 µM: TGI (SK-MEL-28 melanoma)
69.1 µM: TGI (SR leukemia)
12.7 µM: TGI (M14 melanoma)
31.7 µM: TGI (HL-60(TB) leukemia)
13.7 µM: TGI (COLO 205 colon)
79.9 µM: TGI (OVCAR-5 ovarian)
4.71 µM: TGI (BT-549 breast)
5.24 µM: TGI (CCRF-CEM leukemia)
> 100 µM: TGI (SW-620 colon) | TGI (DU-145 prostate) | TGI (PC-3 prostate) | TGI (NCI-H460 lung) | TGI (SN12C renal) | TGI (MDA-MB-231 breast) | TGI (OVCAR-4 ovarian) | TGI (NCI-H23 lung) | TGI (UO-31 renal) | TGI (SK-MEL-2 melanoma) | TGI (HCC-2998 colon) | TGI (CAKI-1 renal) | TGI (OVCAR-8 ovarian) | TGI (MCF7 breast) | TGI (HOP-62 NSCLC) | TGI (SF-268 CNS) | TGI (MALME-3M melanoma) | TGI (HS 578T breast) | TGI (A549 NSCLC) | TGI (MDA-MB-435) | TGI (SNB-19 CNS) | TGI (NCI/ADR-RES ovarian) | TGI (ACHN renal) | TGI (IGROV1 ovarian) | TGI (EKVX NSCLC) | TGI (OVCAR-3 ovarian) | TGI (UACC-257 melanoma) | TGI (HCT-15 colon) | TGI (HT29 colon) | TGI (SK-OV-3 ovarian) | TGI (TK-10 renal) | TGI (LOX IMVI melanoma)
7.88 µM: TGI (RXF 393 renal)
inactive: GI50 (SW-620 colon) 2.73 µM | GI50 (DU-145 prostate) 58.7 µM | GI50 (BT-549 breast) 2.1 µM | GI50 (PC-3 prostate) 77.5 µM | GI50 (NCI-H460 lung) 17 µM | GI50 (SN12C renal) 19.6 µM | GI50 (MDA-MB-231 breast) 6.46 µM | GI50 (OVCAR-4 ovarian) 9.45 µM | GI50 (COLO 205 colon) 2.72 µM | GI50 (U251 CNS) 9.37 µM | GI50 (SK-MEL-5 melanoma) 4.69 µM | GI50 (NCI-H23 lung) 13.7 µM | GI50 (UO-31 renal) 11.4 µM | GI50 (SNB-75 CNS) 8.12 µM | GI50 (MOLT-4 leukemia) 2.08 µM | GI50 (SK-MEL-2 melanoma) 19 µM | GI50 (HCC-2998 colon) 28.8 µM | GI50 (CAKI-1 renal) 14.6 µM | GI50 (786-0 renal) 5.49 µM | GI50 (KM12 colon) 5.52 µM | GI50 (UACC-62 melanoma) 4.34 µM | GI50 (OVCAR-8 ovarian) 7.02 µM | GI50 (MCF7 breast) 5.7 µM | GI50 (HOP-62 NSCLC) 22.9 µM | GI50 (SF-268 CNS) 19.6 µM | GI50 (MALME-3M melanoma) 3.14 µM | GI50 (HS 578T breast) > 100 µM | GI50 (A549 NSCLC) 57.3 µM | GI50 (M14 melanoma) 3.49 µM | GI50 (MDA-MB-435) 3.96 µM | GI50 (SNB-19 CNS) 54 µM | GI50 (HCT-116 colon) 1.74 µM | GI50 (NCI/ADR-RES ovarian) > 100 µM | GI50 (ACHN renal) 8.25 µM | GI50 (IGROV1 ovarian) 64.8 µM | GI50 (EKVX NSCLC) 32.5 µM | GI50 (CCRF-CEM leukemia) 1.83 µM | GI50 (T-47D breast) 4.41 µM | GI50 (SF-539 CNS) 4.62 µM | GI50 (OVCAR-3 ovarian) 6.59 µM | GI50 (UACC-257 melanoma) 29.4 µM | GI50 (SF-295 CNS) 21.2 µM | GI50 (SK-MEL-28 melanoma) 7.09 µM | GI50 (NCI-H226 lung) 2.18 µM | GI50 (NCI-H522 lung) 2.07 µM | GI50 (HCT-15 colon) 65.6 µM | GI50 (RPMI-8226 leukemia) 1.79 µM | GI50 (HT29 colon) 10.4 µM | GI50 (SK-OV-3 ovarian) 54 µM | GI50 (HL-60(TB) leukemia) 5.13 µM | GI50 (RXF 393 renal) 2.44 µM | GI50 (TK-10 renal) 65.5 µM | GI50 (OVCAR-5 ovarian) 25.5 µM | GI50 (LOX IMVI melanoma) 3.7 µM
4.76 µM: TGI (NCI-H522 lung)
42.9 µM: TGI (SF-539 CNS)
66.9 µM: TGI (SF-295 CNS)
4.09 µM: TGI (HCT-116 colon)
32.6 µM: TGI (UACC-62 melanoma)
83.7 µM: TGI (SNB-75 CNS)
31.8 µM: TGI (U251 CNS)
7.71 µM: TGI (NCI-H226 lung)
